Reference: patent publication US20180036234A1, “TREATMENT OF BONE FRACTURES AND DEFECTS” (Entera Bio Ltd., priority 2015, published 2018)
Several values for one entry are separate records, joined by “and”; a condition that tells them apart may be missing. Identical values can stand only once.

Tests used:
[1] = Dissolution test of tablets in simulated gastric buffer, released SNAC by HPLC; type: physicochemical; conditions: tablet with 100 mg sodium bicarbonate vs tablet without; simulated gastric buffer pH 2.0, 37° C.; FIG. 15
Protocol: The tablets were in a form of a homogeneous mixture.
Each tablet formulation was subjected to a dissolution test in 100 ml of simulated gastric buffer (without pepsin), pH 2.0, at 37° C., according to USP 23 Apparatus 2 (paddle) with 50 rotations per minute. The amount of released SNAC in each sample was determined chromatographically, using an HPLC apparatus with Cosmosil™ 5 C18-MS-II (4.6 ID×250 mm) column. Mobile phase consisted of 50% acetonitrile and 50% phosphoric acid solution (0.1%). Flow rate was 1 ml/minute and injection volume was 25 μl. Amount of released SNAC was calculated as a percentage of the amount of SNAC in the formulation.

[2] = Pharmacokinetic study of oral teriparatide tablet (0.75 mg) in healthy volunteers; type: in vivo, human
Protocol: An open label comparative pharmacokinetic study was performed in healthy volunteers over the course of 3 months. Each volunteer received—in each of two visits—the same oral tablet containing 0.75 mg of teriparatide, a recombinant form of parathyroid hormone (1-34).
(§1) The formulation was composed of teriparatide (0.75 mg), SNAC (sodium 8-N-(2-hydroxybenzoyl) aminocaprylate), soybean trypsin inhibitor (SBTI) and a small amount of magnesium stearate.
Tablets were administered in the morning after an 8-hour overnight fast and immediately followed by 150 ml of water. At each visit a standard meal was provided 3 hours after drug administration. […] There was a two weeks period between the visits.
(§2) To determine parathyroid hormone(1-34) (PTH(1-34)) concentrations, blood samples (4 ml each) were drawn via an indwelling catheter from the forearm vein at predetermined time points during each visit. The cannula was flushed with 1.5 ml normal saline after each sampling. In addition, to avoid sample dilution, 1 ml of blood was drawn and discarded before the next sample. The blood samples were taken at following times: baseline (predose), 10 minutes, 15 minutes, 20 minutes, 30 minutes, 45 minutes, 60 minutes, 75 minutes, 90 minutes, 105 minutes, 2 hours, 3 hours, 4 hours and 5 hours post-administration. Each blood sample was collected into a single tube containing EDTA (ethylenediaminetetraacetic acid) and placed on ice. Within 15 minutes of blood collection, samples were centrifuged for 10 minutes at 4° C. (2500 rotations per minute) and the plasma was separated and divided into two or three aliquots. Each aliquot was transferred into appropriately labeled polypropylene tubes and stored at approximately −20° C. pending analysis. PTH(1-34) levels were measured using an IDS-iSYS automated assay for the measurement of intact PTH(1-34) in human plasma or serum.

[3] = Pharmacokinetic study of oral teriparatide tablet co-administered with water or sodium bicarbonate solution; type: in vivo, human; conditions: oral tablet 0.75 mg teriparatide with 150 ml of 3 mg/ml sodium bicarbonate solution, in comparison with 150 ml water; FIG. 16
Protocol: An open label comparative pharmacokinetic study was performed on ten healthy volunteers. On different visits, each volunteer received the same oral tablet containing 0.75 mg of teriparatide, a recombinant form of parathyroid hormone (1-34) (PTH(1-34)). In the first visit, the tablet was administered with 150 ml water, whereas in the second visit the tablet was administered with 150 ml of 3 mg/ml sodium bicarbonate aqueous solution.
as §1
Tablets were administered in the morning after an 8-hour overnight fast. At each visit a standard meal was provided 3 hours after drug administration. […] There was a two week period between the two visits.
To determine PTH(1-34) concentrations, blood samples were drawn and PTH(1-34) levels were measured using an IDS-iSYS automated assay, using procedures described in Example 1 hereinabove. Relative absorption was determined based on the AUC (area under curve) parameter.

[4] = Phase I clinical study of oral teriparatide formulations, plasma PTH(1-34) versus subcutaneous injection; type: in vivo, human
Protocol: A Phase I clinical study of exemplary oral formulations comprising teriparatide (parathyroid hormone (1-34)) was conducted at the Hadassah Clinical Research Center. 42 healthy volunteers were included throughout the study.
The formulation was composed of teriparatide (200, 400, 680, 1400 or 1800 μg), SNAC (sodium 8-N-(2-hydroxybenzoyl) aminocaprylate), soybean trypsin inhibitor and magnesium stearate.
Tablets were administered in the morning after an 8-hour overnight fast and immediately followed by 150 ml of water. At each visit a standard meal was provided 3 hours after drug administration.
as §2, with “hormone” for “hormone(1-34) (PTH(1-34))”, “points.” for “points during each visit.”, “(predose),” for “(predose), 10 minutes,”, “15” for “15 minutes, 20”
Oral administration of teriparatide was performed as described hereinabove at doses of 200, 400, 680, 1400 or 1800 μg. The Cmax of PTH(1-34) for each orally administered dose was compared with the Cmax of PTH(1-34) for subcutaneous injection of 20 μg teriparatide.

cAMP = assay: Plasma cAMP levels after oral or subcutaneous teriparatide; type: in vivo, human; conditions: FIG. 4
Protocol: In addition, plasma levels of cAMP, a known marker of PTH activity, were determined in order to confirm biological activity of administered PTH. cAMP plasma levels were measured following oral administration of 680 μg teriparatide or subcutaneous injection of 20 μg teriparatide, as described hereinabove.

[5] = oral tablet 0.75 mg teriparatide with SNAC, SBTI, magnesium stearate, fasted healthy volunteers, plasma PTH(1-34), per subject (A, B, C)
[6] = oral tablet 0.75 mg teriparatide with SNAC, SBTI, magnesium stearate, second visit two weeks later, per subject (A, B, C)

Row | dissolution of SNAC in tablets [1] | soluble fraction of SNAC [1] | time for plasma levels to return to baseline levels after tablet administration ([2]; oral tablet 0.75 mg teriparatide with SNAC and SBTI, plasma) [min] | Cmax after 1st administration [2, 5] [picogram/ml] | Tmax after 1st administration [2, 5] | Cmax after 2nd administration [2, 6] [picogram/ml] | Tmax after 2nd administration [2, 6] [min] | increase in absorption of PTH(1-34) (based on AUC) [3] | decline of PTH levels following oral administration compared with subcutaneous administration ([4]; oral 1800 μg vs subcutaneous 20 μg teriparatide, FIG. 3) | Cmax of PTH(1-34) following oral administration, relation to dose ([4]; oral tablets 200, 400, 680, 1400 or 1800 μg teriparatide with SNAC and SBTI, FIG. 2) | oral dose providing a Cmax equivalent to that of subcutaneous administration of 20 μg teriparatide ([4]; oral tablets with SNAC and SBTI, FIG. 2) | Compound | plasma cAMP levels (cAMP; oral administration of 680 μg teriparatide (compared with subcutaneous 20 μg)) | plasma cAMP levels (cAMP; subcutaneous administration of 20 μg teriparatide (compared with oral 680 μg))
1 | considerably enhanced | preserved | – | – | – | – | – | – | – | – | – | O=C(O)CCCCCCCNC(=O)c1ccccc1O [SNAC, sodium 8-N-(2-hydroxybenzoyl)aminocaprylate] | – | –
2 | – | – | ≤ 60 | 35 | 10 min and 15 min | 36 | 20 | about 35% | declined considerably more rapidly | proportional to the dose | roughly 750 μg | CC[C@H](C)[C@H](NC(=O)[C@H](CCC(=O)O)NC(=O)[C@H](CO)NC(=O)[C@@H](NC(=O)[C@@H](N)CO)C(C)C)C(=O)N[C@@H](CCC(N)=O)C(=O)N[C@@H](CC(C)C)C(=O)N[C@@H](CCSC)C(=O)N[C@@H](Cc1cnc[nH]1)C(=O)N[C@@H](CC(N)=O)C(=O)N[C@@H](CC(C)C)C(=O)NCC(=O)N[C@@H](CCCCN)C(=O)N[C@@H](Cc1cnc[nH]1)C(=O)N[C@@H](CC(C)C)C(=O)N[C@@H](CC(N)=O)C(=O)N[C@@H](CO)C(=O)N[C@@H](CCSC)C(=O)N[C@@H](CCC(=O)O)C(=O)N[C@@H](CCCN=C(N)N)C(=O)N[C@H](C(=O)N[C@@H](CCC(=O)O)C(=O)N[C@@H](Cc1c[nH]c2ccccc12)C(=O)N[C@@H](CC(C)C)C(=O)N[C@@H](CCCN=C(N)N)C(=O)N[C@@H](CCCCN)C(=O)N[C@@H](CCCCN)C(=O)N[C@@H](CC(C)C)C(=O)N[C@@H](CCC(N)=O)C(=O)N[C@@H](CC(=O)O)C(=O)N[C@H](C(=O)N[C@@H](Cc1cnc[nH]1)C(=O)N[C@@H](CC(N)=O)C(=O)N[C@@H](Cc1ccccc1)C(=O)O)C(C)C)C(C)C [teriparatide] | increased plasma cAMP levels to a similar degree | increased plasma cAMP levels to a similar degree
